pEC50: −log10 of the molar value.

For one molecule, EC50 results are on record in PubChem BioAssay AID1224918.

The assay concerns MCF7 antiproliferative assay. Put plainly: PubChem AID 1224918.

The pEC50 is the EC50 on a negative log10 scale, so that one unit is a factor of ten. On to `COc1cc(-c2nn(CCN3CCC(N(C)C)CC3)c3ncnc(N)c23)ccc1NC(=O)OC(C)(C)C`, for which the pEC50 is 7.15.
